Converted amounts (≈) assume the structure as drawn. Where two headings read alike, the source gives them in different places.
Tests used:
physchem = settings: pH 7.4
C57BL/6 mice [1] = settings: orthosteric agonist at 10 mg/kg; cited from earlier work
C57BL/6 mice [2] = settings: orthosteric agonist at 10 mg/kg; cited from earlier work; remark: listed apart in the source
hCB1R [3] = biological target: T1, hCB1R (Homo sapiens, UniProt P21554); assay: DiscoveRx HitHunter cAMP inhibition assay; settings: for PAM bias between cAMP inhibition and βarrestin2 recruitment (ΔΔLogR): 100 nM CP55,940 as agonist; for PAM bias between cAMP inhibition and βarrestin2 recruitment (ΔΔLogR) / agonist bias between cAMP inhibition and βarrestin2 recruitment (ΔΔLogR): 90 min, operational model; for agonist bias between cAMP inhibition and βarrestin2 recruitment (ΔΔLogR): GAT compound alone
T1 sequence (P21554 whole entry): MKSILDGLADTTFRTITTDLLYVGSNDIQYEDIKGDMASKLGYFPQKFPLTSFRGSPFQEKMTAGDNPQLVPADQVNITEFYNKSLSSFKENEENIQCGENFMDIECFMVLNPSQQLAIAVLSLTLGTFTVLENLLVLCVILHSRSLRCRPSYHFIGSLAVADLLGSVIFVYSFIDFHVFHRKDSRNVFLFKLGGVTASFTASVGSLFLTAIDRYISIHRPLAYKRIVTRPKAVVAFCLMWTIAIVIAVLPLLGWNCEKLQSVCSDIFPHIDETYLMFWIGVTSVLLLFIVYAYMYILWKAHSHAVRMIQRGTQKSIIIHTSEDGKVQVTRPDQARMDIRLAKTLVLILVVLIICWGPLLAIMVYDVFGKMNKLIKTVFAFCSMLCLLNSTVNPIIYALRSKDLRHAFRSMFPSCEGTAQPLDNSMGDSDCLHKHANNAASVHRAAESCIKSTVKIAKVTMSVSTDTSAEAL

[4] = tested on: CFA-induced mechanical allodynia; settings: same CFA model; cited from earlier work
[5] = tested on: normotensive C57Bl/6J mice; settings: cited from earlier work
[6] = tested on: ocular hypertensive NEE mice; assay: Intraocular pressure in ocular hypertensive NEE mice; settings: topical 0.2% 9j alone
C57BL/6 mice [7] = assay: Triad assessment: body temperature; settings: 0.1, 1, 3, or 10 mg/kg (i.p.); 15 min; vs vehicle
C57BL/6 mice [8] = assay: Triad assessment: catalepsy; settings: 0.1, 1, 3, or 10 mg/kg (i.p.); 5 min; vs vehicle
[9] = tested on: autaptic hippocampal neurons; assay: Electrophysiology in autaptic hippocampal neurons; settings: after 9j treatment
GFP-rCB1R = GFP-rCB1R (Rattus norvegicus, UniProt P20272); assay: cAMP inhibition; format: cell-based; settings: for ΔEC50 / ΔEMax: difference between CP55,940 alone and maximal concentration of GAT compound
GFP-rCB1R, sequence (P20272 whole entry): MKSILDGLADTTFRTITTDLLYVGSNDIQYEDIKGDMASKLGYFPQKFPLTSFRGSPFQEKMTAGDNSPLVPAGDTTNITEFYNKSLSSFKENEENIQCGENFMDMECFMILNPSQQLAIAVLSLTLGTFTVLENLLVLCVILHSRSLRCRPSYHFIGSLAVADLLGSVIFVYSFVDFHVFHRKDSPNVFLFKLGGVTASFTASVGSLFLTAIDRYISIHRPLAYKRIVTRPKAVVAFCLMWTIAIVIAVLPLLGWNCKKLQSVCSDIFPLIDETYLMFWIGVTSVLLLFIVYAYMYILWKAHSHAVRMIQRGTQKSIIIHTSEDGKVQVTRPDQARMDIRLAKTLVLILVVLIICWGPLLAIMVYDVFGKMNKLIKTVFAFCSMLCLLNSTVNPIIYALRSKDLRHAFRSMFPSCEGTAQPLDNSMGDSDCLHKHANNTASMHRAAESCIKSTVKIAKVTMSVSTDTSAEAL

C57BL/6 mice [10] = assay: Triad assessment: warm water tail-flick test; settings: 0.1-10 mg/kg i.p.; 20 min; significant vs vehicle at 3 and 10 mg/kg
[11] = tested on: CFA-induced mechanical allodynia; assay: CFA-induced inflammatory nociception, mechanical allodynia; format: in vivo, mouse; settings: for mechanical paw withdrawal threshold at 30 min post-injection: CFA-injected paw; for mechanical paw withdrawal threshold at 30 min post-injection / anti-allodynic efficacy at 4 h post injection: vs vehicle; for duration of efficacy post injection / suppression of CFA-induced mechanical allodynia in CB1KO mice: ipsilateral paw; for paw withdrawal thresholds in the contralateral paw: 0.1-30 mg/kg i.p.; for doses that elevated mechanical paw withdrawal thresholds relative to vehicle: CFA-injected (ipsilateral) paw, WT mice
hCB1R [12] = biological target: T1, hCB1R; assay: DiscoveRx PathHunter βarrestin2 recruitment assay; settings: for concentrations promoting CP55,940-dependent βarrestin2 recruitment: 100 nM CP55,940, 90 min

O=[N+]([O-])CC(c1ccccc1)c1c(-c2ccccc2)[nH]c2cnccc12 (centres unmarked) [Compound 9h, 3-(2-Nitro-1-phenylethyl)-2-phenyl-1H-pyrrolo[2,3-c]pyridine]
solubility thermodynamic (physchem): 2.3 µg/mL (≈ 6.7 µM)

O=[N+]([O-])CC(c1ccccc1)c1c(-c2ccccc2)[nH]c2cccnc12 (centres unmarked) [Compound 9f, 3-(2-Nitro-1-phenylethyl)-2-phenyl-1H-pyrrolo[3,2-b]pyridine]
solubility thermodynamic (physchem): 3.8 µg/mL (≈ 11.1 µM)

O=[N+]([O-])CC(c1cccnc1)c1c(-c2ccccc2)[nH]c2ccccc12 (centres unmarked) [Compound 9b, 3-(2-Nitro-1-(pyridin-3-yl)ethyl)-2-phenyl-1H-indole]
solubility thermodynamic (physchem): 0.4 µg/mL (≈ 1.16 µM)

O=[N+]([O-])CC(c1ccccn1)c1c(-c2ccccc2)[nH]c2ccccc12 (centres unmarked) [Compound 9a, 3-(2-Nitro-1-(pyridin-2-yl)ethyl)-2-phenyl-1H-indole]
solubility thermodynamic at 24 h (physchem): 1 µg/mL (≈ 2.91 µM)

CCCCCc1cc(O)c2c(c1)OC(C)(C)[C@@H]1CCC(C)=C[C@@H]21 [THC, Δ[9]-tetrahydrocannabinol]
hypothermic effects (C57BL/6 mice [1]): hypothermic effects
catalepsy (C57BL/6 mice [2]): significant catalepsy

O=[N+]([O-])CC(c1ccccc1)c1c(-c2ccccc2)[nH]c2ccccc12 (centres unmarked) [Compound 6d, 3-(2-Nitro-1-phenylethyl)-2-phenyl-1H-indole]
Emax (hCB1R [3]; read-out: cAMP EMax, PAM activity, CP55,940 at EC20 + analog, 30 min, mean ± SEM): 110 ± 6.8%
anti-allodynic efficacy at 1.5 h [4]: present
anti-allodynic efficacy at […] post injection [4]: absent
time of maximal anti-allodynic efficacy post-injection [4]: 30 min

Cc1c(C(=O)c2cccc3ccccc23)c2cccc3c2n1[C@H](CN1CCOCC1)CO3 [WIN]
effect on IOP ([5]; topical 1% WIN): decreases IOP
effect on IOP ([5]; topical WIN […] (subthreshold)): does not affect IOP

O=[N+]([O-])CC(c1ncccc1F)c1c(-c2ccccc2)[nH]c2ccccc12 (centres unmarked) [Compound 9j, 3-(1-(3-Fluoropyridin-2-yl)-2-nitroethyl)-2-phenyl-1H-indole]
change in IOP from baseline, 1 hour ([6]; 1 h): −2.5 ± 1 mmHg
change in IOP from baseline, 6 hours ([6]; 6 h): −3.6 ± 1 mmHg
IOP decrease at 12 hours ([6]; 12 h): no longer present
hypothermia (C57BL/6 mice [7]): did not produce catalepsy or hypothermia
catalepsy (C57BL/6 mice [8]): did not produce catalepsy
DSE response [9]: DSE was enhanced

O=[N+]([O-])CC(c1ccccc1)c1c(-c2ccccc2)[nH]c2ncccc12 (centres unmarked) [Compound 9i, 3-(2-Nitro-1-phenylethyl)-2-phenyl-1H-pyrrolo[2,3-b]pyridine]
solubility thermodynamic (physchem): 54.6 µg/mL (≈ 159 µM)

O=[N+]([O-])CC(c1ccncc1)c1c(-c2ccccc2)[nH]c2ccccc12 (centres unmarked) [Compound 9c, 3-(2-Nitro-1-(pyridin-4-yl)ethyl)-2-phenyl-1H-indole]
solubility thermodynamic (physchem): 12.6 µg/mL (≈ 36.7 µM)

O=[N+]([O-])CC(c1ccccc1)c1c(-c2ccncc2)[nH]c2ccccc12 (centres unmarked) [Compound 9e, 3-(2-Nitro-1-phenylethyl)-2-(pyridin-4-yl)-1H-indole]
solubility thermodynamic (physchem): 0.7 µg/mL (≈ 2.04 µM)

O=[N+]([O-])CC(c1ccccc1F)c1c(-c2cccc(F)c2)[nH]c2c(F)cccc12 (centres unmarked) [Compound 6s, 7-Fluoro-2-(3-fluorophenyl)-3-(1-(2-fluorophenyl)-2-nitroethyl)-1H-indole]
PAM bias between cAMP inhibition and βarrestin2 recruitment (ΔΔLogR) (hCB1R [3]): display bias toward cAMP inhibition
agonist bias between cAMP inhibition and βarrestin2 recruitment (ΔΔLogR) (hCB1R [3]): agonist bias toward cAMP inhibition
ΔEC50 (GFP-rCB1R): -12 ± 8.0 nM
ΔEMax (GFP-rCB1R): 67 ± 15 % Forskolin
anti-nociceptive effect in the tail flick assay (C57BL/6 mice [10]): dose-dependent anti-nociceptive effect
antinociceptive efficacy compared with 6r at […] post injection ([11]; 30 mg/kg i.p.): greater antinociceptive efficacy than 6r
mechanical paw withdrawal threshold at 30 min post-injection ([11]; 30 mg/kg i.p.): increased mechanical paw withdrawal threshold
duration of efficacy post injection ([11]; 30 mg/kg i.p.): at least 2.5 h
suppression of CFA-induced mechanical allodynia in CB1KO mice ([11]; 30 mg/kg i.p.): Neither
anti-allodynic efficacy at 4 h post injection ([11]; 30 mg/kg i.p.): no longer present
paw withdrawal thresholds in the contralateral paw [11]: without altering paw withdrawal thresholds in the contralateral paw
doses that elevated mechanical paw withdrawal thresholds relative to vehicle ([11]; i.p.): 3 to 30 mg/kg
concentrations promoting CP55,940-dependent βarrestin2 recruitment (hCB1R [12]): ≥ 3.5 µM
hypothermia (C57BL/6 mice [7]): did not produce catalepsy or hypothermia
catalepsy (C57BL/6 mice [8]): did not produce catalepsy

O=[N+]([O-])CC(c1ccccc1)c1c(-c2cccnc2)[nH]c2ccccc12 (centres unmarked) [Compound 9d, 3-(2-Nitro-1-phenylethyl)-2-(pyridin-3-yl)-1H-indole]
solubility thermodynamic (physchem): 1.7 µg/mL (≈ 4.95 µM)

O=[N+]([O-])CC(c1ccccc1)c1c(-c2ccccc2)[nH]c2ccncc12 (centres unmarked) [Compound 9g, 3-(2-Nitro-1-phenylethyl)-2-phenyl-1H-pyrrolo[3,2-c]pyridine]
solubility thermodynamic (physchem): 8.1 µg/mL (≈ 23.6 µM)

CCCCCCC(C)(C)c1ccc([C@@H]2C[C@H](O)CC[C@H]2CCCO)c(O)c1 [CP55,940, reference compound]
Standard agonist EMax, HitHunter cAMP (hCB1R [3]; standard agonist alone): 1.5 ± 0.07 fold over baseline
CP55,940 EMax, Vehicle (0) (GFP-rCB1R; CP55,940 without GAT compound, upper plateau): 100 ± 6.4 % Forskolin
Standard agonist EMax, PathHunter βarrestin2 (hCB1R [12]; standard agonist alone): 8.0 ± 1.3 fold over baseline

O=[N+]([O-])CC(c1ccccc1F)c1c(-c2cccc(F)c2)[nH]c2cc(F)ccc12 (centres unmarked) [Compound 6r, 6-Fluoro-2-(3-fluorophenyl)-3-(1-(2-fluorophenyl)-2-nitroethyl)-1H-indole]
PAM bias between cAMP inhibition and βarrestin2 recruitment (ΔΔLogR) (hCB1R [3]): display bias toward cAMP inhibition
agonist bias between cAMP inhibition and βarrestin2 recruitment (ΔΔLogR) (hCB1R [3]): agonist bias toward cAMP inhibition
ΔEC50 (GFP-rCB1R): -12 ± 5.7 nM
ΔEMax (GFP-rCB1R): 68 ± 4.3 % Forskolin
anti-nociceptive effect in the tail flick assay (C57BL/6 mice [10]): dose-dependent anti-nociceptive effect
mechanical paw withdrawal threshold at 30 min post-injection ([11]; 30 mg/kg i.p.): increased mechanical paw withdrawal threshold
duration of efficacy post injection ([11]; 30 mg/kg i.p.): at least 2.5 h
suppression of CFA-induced mechanical allodynia in CB1KO mice ([11]; 30 mg/kg i.p.): Neither
anti-allodynic efficacy at 4 h post injection ([11]; 30 mg/kg i.p.): no longer present
paw withdrawal thresholds in the contralateral paw [11]: without altering paw withdrawal thresholds in the contralateral paw
dose that maximally suppressed CFA-induced inflammatory pain ([11]; i.p.): 30 mg/kg
doses that elevated mechanical paw withdrawal thresholds relative to vehicle ([11]; i.p.): 3 to 30 mg/kg
concentrations promoting CP55,940-dependent βarrestin2 recruitment (hCB1R [12]): ≥ 0.19 µM
hypothermia (C57BL/6 mice [7]): did not produce catalepsy or hypothermia
catalepsy (C57BL/6 mice [8]): did not produce catalepsy

— paper PMC7077750 (Journal of medicinal chemistry, 2020)
